Data set [1] deals with SK-OV-3. The data set is described as follows: Cytotoxicity against human SK-OV-3 cells assessed as increase in LDH activity at 40 uM incubated upto 96 hrs. In kind it is toxicity, cell-based. To be noted: sk-ov-3, 96 h.
Data set [2] concerns SK-OV-3. The experiment in a line: Cytotoxicity against human SK-OV-3 cells assessed as change in cell morphology at IC50 incubated for 24 hrs by DAPI fluorescent staining analysis. The data set is classed as toxicity, cell-based. To be noted: sk-ov-3, 24 h.
Data set [3] deals with SK-OV-3. The data set is described as follows: Cytotoxicity against human SK-OV-3 cells assessed as increase in LDH activity at IC50 incubated upto 96 hrs. The data set is classed as toxicity, cell-based. The settings on record: sk-ov-3, 96 h.
Data set [4] has as its system BJ. The data set is described as follows: Cytotoxicity against human BJ cells assessed as increase in LDH activity incubated for 24 hrs. In kind it is toxicity, cell-based.
For data set [5], the system named is SK-OV-3. The data set is described as follows: Cytotoxicity against human SK-OV-3 cells assessed as change in fibronectin matrix organization at 40 uM incubated for 24 hrs by phalloidin fluorescent staining analysis. In kind it is toxicity, cell-based. To be noted: sk-ov-3, 24 h.
A short description of data set [6]: Lipophilicity, logP of compound in n-Octanol/water. The data set is classed as physicochemical.
Data set [7] concerns SK-OV-3. The experiment in a line: Cytotoxicity against human SK-OV-3 cells assessed as change in cell cytoskeleton at IC50 incubated for 24 hrs by phalloidin fluorescent staining analysis. In kind it is toxicity, cell-based. The settings on record: sk-ov-3, 24 h.
For data set [8], the system named is SK-OV-3. The experiment in a line: Cytotoxicity against human SK-OV-3 cells assessed as change in fibronectin matrix organization at IC50 incubated for 24 hrs by phalloidin fluorescent staining analysis. To be noted: sk-ov-3, 24 h. The data set is classed as toxicity, cell-based.
In data set [9] the test system is SK-OV-3. The experiment in a line: Cytotoxicity against human SK-OV-3 cells assessed as increase in LDH activity incubated for 24 hrs. In kind it is toxicity, cell-based. To be noted: sk-ov-3, 24 h.
Data set [10] in a line: Inhibition of porcine gastric mucosa Pepsin using MCA labeled GKPILFFRLK(DNP)-D-R-NH2 as substrate preincubated for 10 mins followed by substrate addition by FRET assay. The arrangement: species or system Sus scrofa.
A short description of data set [11]: Chromatographic hydrophobicity index of compound incubated for 20 mins by reversed-phase HPLC analysis. The data set is classed as ADME.
Data set [12] deals with SK-OV-3. The experiment in a line: Cytotoxicity against human SK-OV-3 cells assessed as cell retraction at 40 uM incubated for 24 hrs by DAPI fluorescent staining analysis. In kind it is toxicity, cell-based. To be noted: sk-ov-3, 24 h.
Data set [13] has as its system SK-OV-3. The data set is described as follows: Cytotoxicity against human SK-OV-3 cells assessed as diffused F-actin network at IC50 incubated for 24 hrs by phalloidin fluorescent staining analysis. In kind it is toxicity, cell-based. To be noted: sk-ov-3, 24 h.
For data set [14], the system named is SK-OV-3. The data set is described as follows: Cytotoxicity against human SK-OV-3 cells assessed as change in cell cytoskeleton at 40 uM incubated for 24 hrs by phalloidin fluorescent staining analysis. The settings on record: sk-ov-3, 24 h. In kind it is toxicity, cell-based.
Data set [15] has as its system BJ. The experiment in a line: Cytotoxicity against human BJ cells assessed as increase in LDH activity at IC50 incubated upto 96 hrs. The data set is classed as toxicity, cell-based.
Data set [16] concerns SK-OV-3. The data set is described as follows: Cytotoxicity against human SK-OV-3 cells assessed as change in nucleus morphology at IC50 incubated for 24 hrs by DAPI fluorescent staining analysis. In kind it is toxicity, cell-based. The settings on record: sk-ov-3, 24 h.
Data set [17] relates to SK-OV-3. The experiment in a line: Cytotoxicity against human SK-OV-3 cells assessed as change in cell cytoskeleton at 28 uM incubated for 24 hrs by phalloidin fluorescent staining analysis. In kind it is toxicity, cell-based. To be noted: sk-ov-3, 24 h.
Data set [18] concerns SK-OV-3. The experiment in a line: Cytotoxicity against human SK-OV-3 cells assessed as increase in LDH activity at 28 uM incubated upto 96 hrs. In kind it is toxicity, cell-based. The settings on record: sk-ov-3, 96 h.
For data set [19], the system named is SK-OV-3. The experiment in a line: Cytotoxicity against human SK-OV-3 cells assessed as cell retraction at 28 uM incubated for 24 hrs by DAPI fluorescent staining analysis. The data set is classed as toxicity, cell-based. The settings on record: sk-ov-3, 24 h.
The subject of data set [20] is SK-OV-3. The experiment in a line: Cytotoxicity against human SK-OV-3 cells assessed as change in fibronectin matrix organization at 28 uM incubated for 24 hrs by phalloidin fluorescent staining analysis. The data set is classed as toxicity, cell-based. The settings on record: sk-ov-3, 24 h.
Data set [21] concerns the target Cathepsin D (Homo sapiens, UniProt P07339). The data set is described as follows: Inhibition of human Cathepsin D using MCA labeled GKPILFFRLK(DNP)-D-R-NH2 as substrate preincubated for 10 mins followed by substrate addition by FRET assay.

Where a name gives a salt, the structure may show the parent alone. Numbered stars: 1 amine (or outer) side, 2 acyl side, 3 side chain; on linkers, the order of the positions; unused ones are H or OH. Square brackets hold non-standard residues; d marks the D form. Peptide text beside a SMILES is read from it. * marks the point of attachment. X2 = C[C@@](N[*:1])(C(=O)[*:2])C(F)(F)F; X1 = C[C@](N[*:1])(C(=O)[*:2])C(F)(F)F; Sta = CC(C)C[C@H](N)[C@@H](O)CC(=O)O; Cbz = O=C(OCc1ccccc1)*; Tfa = O=C(C(F)(F)F)*

Broadly, the logP is a log measure of how a compound divides between an organic and an aqueous phase. A high value points to higher lipophilicity. Usually IC50 stands for the midpoint of a concentration-inhibition curve. A low value points to greater potency.

Chain of Cathepsin D (P07339 65-162 limits assumed): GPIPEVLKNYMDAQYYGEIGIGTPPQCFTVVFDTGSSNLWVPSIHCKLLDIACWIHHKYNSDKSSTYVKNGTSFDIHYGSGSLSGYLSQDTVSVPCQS
Chain of Cathepsin D (P07339 169-412 limits assumed): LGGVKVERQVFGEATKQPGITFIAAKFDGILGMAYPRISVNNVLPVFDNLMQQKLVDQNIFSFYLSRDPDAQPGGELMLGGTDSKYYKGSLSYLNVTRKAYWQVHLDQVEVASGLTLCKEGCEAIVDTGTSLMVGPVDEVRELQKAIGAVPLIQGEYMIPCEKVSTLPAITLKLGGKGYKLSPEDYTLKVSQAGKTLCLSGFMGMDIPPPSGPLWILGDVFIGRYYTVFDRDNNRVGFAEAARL

Turning to `CC(C)CC(=O)N[C@H](CCSC(F)(F)F)C(=O)N[C@H](C(=O)N[C@@H](CC(C)C)[C@@H](O)CC(=O)N[C@@H](C)C(=O)N[C@@H](CC(C)C)[C@@H](O)CC(=O)O)C(C)C`, the Activity entry in data set [1] is “Toxic”; in data set [2], “Toxic”; in [3] it was “Non-Toxic”; in [4] it was “Non-Toxic”; in data set [5], “Toxic”; in data set [7] it was “Toxic”. For the same compound, the Activity result was “Toxic” in [8]; “Non-Toxic” in data set [9]; “Toxic” in data set [12]; “Toxic” in data set [13]; “Toxic” in data set [14]; “Non-Toxic” in [15]. Further, in data set [16], the Activity result is given as “Toxic”. In data set [6], this compound yielded a logP of 3.3. Also, half-maximal inhibition in [10] (IC50) was put at 31 nM. The CHI in data set [11] amounted to 45.85.
The compound `CC(C)CC(=O)N[C@@H](C(=O)N[C@H](C(=O)N[C@@H](CCSC(F)(F)F)[C@@H](O)CC(=O)N[C@@H](C)C(=O)N[C@@H](CC(C)C)[C@@H](O)CC(=O)O)C(C)C)C(C)C` came in with an IC50 in [10] of 193 nM.
Consider `CC(C)CC(=O)N[C@@H](C(=O)N[C@H](C(=O)N[C@@H](CC(C)C)[C@@H](O)CC(=O)N[C@@H](C)C(=O)N[C@@H](CC(C)C)[C@@H](O)CC(=O)O)C(C)C)C(C)C`, for which the Activity entry in [4] and in [9] was “Non-Toxic” in each case. The compound further yielded an IC50 in [10] of 21 nM.
In the case of `CC(C)CC(=O)N[C@@H](CCSC(F)(F)F)C(=O)N[C@H](C(=O)N[C@@H](CC(C)C)[C@@H](O)CC(=O)N[C@@H](C)C(=O)N[C@@H](CC(C)C)[C@@H](O)CC(=O)O)C(C)C`, the Activity result in data set [4] and in data set [9] was “Non-Toxic” in each case. The compound also displayed a logP in data set [6] of 3.33. Further, the IC50 in [10] worked out at 775 nM. In [11], this compound had a CHI of 46.95.
As for `CC(C)C[C@H](NC(=O)[C@H](C)NC(=O)C[C@H](O)[C@H](CC(C)C)NC(=O)[C@@H](NC(=O)[C@](C)(NC(=O)OCc1ccccc1)C(F)(F)F)C(C)C)[C@@H](O)CC(=O)O` (Cbz-[X1]V[Sta]A[Sta]-OH), the Activity entry is given as “Toxic” in data set [2]; “Non-Toxic” in [3]; “Non-Toxic” in data set [4]; “Toxic” in data set [17]; “Toxic” in data set [18]; “Toxic” in data set [19]. Besides, the Activity entry in data set [7] is given as “Toxic”; in [8], “Toxic”; in data set [9] it was “Non-Toxic”; in [13], “Toxic”; in [20] it was “Toxic”; in data set [15], “Non-Toxic”. The Activity entry in data set [16] is given as “Toxic”. In [6], the logP was 3.36. Moreover, in data set [10], the IC50 was 48 nM. Besides, the CHI in [11] was determined as 47.24.
Regarding `CC(C)C[C@H](NC(=O)[C@H](C)NC(=O)C[C@H](O)[C@H](CC(C)C)NC(=O)[C@@H](NC(=O)[C@@](C)(NC(=O)OCc1ccccc1)C(F)(F)F)C(C)C)[C@@H](O)CC(=O)O` (Cbz-[X2]V[Sta]A[Sta]-OH), the Activity result in [4] and in data set [9] was “Non-Toxic” throughout. Also, the logP in data set [6] was 3.97. The same compound showed an IC50 in data set [10] of 375 nM. In addition, in data set [11], the CHI was 49.19.
For the compound `CC(C)C[C@H](NC(=O)[C@H](C)NC(=O)C[C@H](O)[C@H](CC(C)C)NC(=O)[C@@H](NC(=O)[C@@H](NC(=O)C(F)(F)F)C(C)C)C(C)C)[C@@H](O)CC(=O)O` (Tfa-VV[Sta]A[Sta]-OH), the logP in data set [6] was 2.44. The half-maximal inhibitory concentration (IC50) in data set [21] is more than 2000 nM; in [10], more than 4000 nM. For the same compound, the CHI in data set [11] is reported as 43.68.
With `CC(C)CC(=O)N[C@H](C(=O)N[C@H](C(=O)N[C@@H](CC(C)C)[C@@H](O)CC(=O)N[C@@H](C)C(=O)N[C@@H](CC(C)C)[C@@H](O)CC(=O)O)C(C)C)C(C)C` [PEPSTATIN], the logP in data set [6] is 2.37. This compound also returned an IC50 in data set [10] of 50 nM. In addition, in data set [11], the CHI came out at 39.55.

For the origin of these results see ChEMBL document CHEMBL5543087 (Eur J Med Chem, 2024).
